Assay results: patent US20020094522A1, “Means and methods for monitoring non-nucleoside reverse transcriptase inhibitor antiretroviral therapy and guiding therapeutic decisions in the treatment of HIV/AIDS” (priority 2000, published 2002)

Tested on: T66I integrase site-directed mutant resistance test vector
Assay: Phenotypic susceptibility assay, T66I integrase mutant vector
Format: cell-based, HIV
Details: T66I integrase mutant
Description: Transfections were performed using a calcium-phosphate precipitation procedure. […] Cell lysates were assayed for luciferase activity (FIG. 3).
The drug inhibition curves are shown in (FIG. 3).
A resistance test vector containing the threonine to isoleucine mutation at position 66 of the integrase protein (T66I) was constructed and tested using the phenotypic assay described earlier.

Structure (SMILES) | reduction in susceptibility compared to wild type control RTV [fold]
O=C(O)C(=O)CC(=O)c1cccn1Cc1ccc(F)cc1 [L-731,988] | 4.7

Tested on: RTV-268 (patient sample 97-268; P236L)
Assay: Phenotypic susceptibility assay, RTV-268
Format: cell-based, HIV-1
Details: RTV-268 / patient 268
Description: The resistance test vectors containing a functional luciferase gene cassette were constructed and host cells were transfected with the resistance test vector DNA. The resistant test vectors contained patient-derived reverse transcriptase and protease sequences that were either susceptible or resistant to the antiretroviral agents, such as nucleoside reverse transcriptase inhibitors, non-nucleoside reverse transcriptase inhibitors and protease inhibitors. The resistance test vector viral particles produced by transfecting the resistance test vector DNA into host cells, either in the presence or absence of protease inhibitors, were used to infect target host cells grown either in the absence of NRTI or NNRTI or in the presence of increasing concentrations of the drug. The amount of luciferase activity produced in infected target host cells in the presence of drug was compared to the amount of luciferase produced in infected target host cells in the absence of drug. Drug resistance was measured as the amount of drug required to inhibit by 50% the luciferase activity detected in the absence of drug (inhibitory concentration 50%, IC50). The IC50 values were determined by plotting percent drug inhibition vs. log10 drug concentration.
Host cells were seeded in 10-cm-diameter dishes and were transfected several days after plating with resistance test vector plasmid DNA and the envelope expression vector. Transfections were performed using a calcium-phosphate precipitation procedure. The cell culture media containing the DNA precipitate was replaced with fresh medium, from one to 24 hours, after transfection. Cell culture media containing resistance test vector viral particles was harvested one to four days after transfection and was passed through a […] filter before being stored at −80° C. HIV capsid protein (p24) levels in the harvested cell culture media were determined by an EIA method as described by the manufacturer (SIAC; Frederick, Md.). Before infection, target cells (293 and 293/T) were plated in cell culture media. Control infections were performed using cell culture media from mock transfections (no DNA) or transfections containing the resistance test vector plasmid DNA without the envelope expression plasmid. One to three or more days after infection the media was removed and cell lysis buffer (Promega) was added to each well. […] The inhibitory effect of the drug was determined using the following equation: […]
where RLUluc [drug] is the relative light unit of luciferase activity in infected cells in the presence of drug and RLUluc is the Relative Light Unit of luciferase activity in infected cells in the absence of drug. IC50 values were obtained from the sigmoidal curves that were generated from the data by plotting the percent inhibition of luciferase activity vs. the log10 drug concentration.
A resistance test vector was constructed as described in Example 1 from a patient sample designated 97-268. […] Isolation of viral RNA and RT/PCR was used to generate a patient derived segment that comprised viral sequences coding for all of PR and amino acids 1-313 of RT. The patient derived segment was inserted into a indicator gene viral vector to generate a resistance test vector designated RTV-268. RTV-268 was then tested using the phenotypic susceptibility assay to determine accurately and quantitatively the level of susceptibility to a panel of anti-retroviral drugs. […] An IC50 was determined for each drug tested. Susceptibility of the patient virus to each drug was examined and compared to the susceptibility of a reference virus. […] The sample was examined further for genotypic changes associated with the pattern of susceptibility.

Structure (SMILES) | susceptibility/resistance compared to reference virus
Cc1cn([C@H]2C[C@H](N=[N+]=[N-])[C@@H](CO)O2)c(=O)[nH]c1=O [AZT] | significant resistance
Nc1ccn([C@H]2CC[C@@H](CO)O2)c(=O)n1 [ddC] | slight shifts in susceptibility
Nc1ccn([C@@H]2CS[C@H](CO)O2)c(=O)n1 [3TC] | significant resistance
Cc1cn([C@H]2C=C[C@@H](CO)O2)c(=O)[nH]c1=O [d4T] | slight shifts in susceptibility
O=c1[nH]cnc2c1ncn2[C@H]1CC[C@@H](CO)O1 [ddI] | slight shifts in susceptibility
